Assay [1] addresses cloned human P2Y1 receptors (Homo sapiens (Human), UniProt P47900). The assay is described as follows: Binding Assay B: Scintillation Proximity Assay (SPA) for P2Y1 binding. The note with it: SPA, [33P] 2MeS-ADP displacement; read-out: P2Y1 Ki (nM) using binding assay B. The gist of the method:
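Membranes with ~15 fmol receptor (1.7 μg total protein) incubated with 0.3 nM [^33P]-labelled radioligand for 1 h at room temperature to completion. After centrifugation and removal of aqueous phase, bound radioactivity read by scintillation proximity; inhibition of radioligand binding measured.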
(In general: In a scintillation proximity assay essentially only radioactivity close to the scintillant gives light.)

Assay [2] has as its system human platelet rich plasma (PRP). The assay is described as follows: ADP induced platelet aggregation assay.
The mark [3] stands for this setting: Homo sapiens, Platelet, read-out: PA IC50 (μM) @ 10 μM ADP, platelet aggregation induced by 10 μM ADP, human PRP.

Our source for the Ki and IC50 values is patent US9428504B2, “7-hydroxy-spiropipiperidine indolinyl antagonists of P2Y1 receptor” (BRISTOL-MYERS SQUIBB COMPANY, priority 2012, dated 2016).

The structures appear in SMILES notation. Where two headings read alike, the source gives them in different places.

Chain of cloned human P2Y1 receptors (P47900 whole entry): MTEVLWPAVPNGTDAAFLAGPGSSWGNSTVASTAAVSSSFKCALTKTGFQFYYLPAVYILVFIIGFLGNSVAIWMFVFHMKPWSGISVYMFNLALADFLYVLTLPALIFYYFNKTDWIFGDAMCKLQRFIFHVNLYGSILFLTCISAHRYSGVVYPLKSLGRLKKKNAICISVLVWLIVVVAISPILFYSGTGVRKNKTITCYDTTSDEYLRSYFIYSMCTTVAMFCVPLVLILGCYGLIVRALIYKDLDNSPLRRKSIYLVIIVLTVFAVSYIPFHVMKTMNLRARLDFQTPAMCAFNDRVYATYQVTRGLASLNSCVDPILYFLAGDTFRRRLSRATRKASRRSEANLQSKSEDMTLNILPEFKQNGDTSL

A word on the Ki: it is a measure of affinity in units of concentration, obtained from inhibition or displacement. A word on the IC50: it is the concentration needed to halve the response being measured. For `CC(C)(C)CN1CCC2(CC1)CN(c1ccccc1NC(=O)Nc1ccc(OC(F)(F)F)cc1)c1c(O)cc(F)c(-c3ccc(Cl)cc3)c12` [Example 157, 1-(2-(4-(4-Chlorophenyl)-5-fluoro-7-hydroxy-1′-neopentylspiro[indoline-3,4′-piperidin]-1-yl)phenyl)-3-(4-(trifluoromethoxy)phenyl)urea], the Ki in assay [1] amounted to 12.3 nM. The IC50 in assay [2] (setting [3]) stood at 0.2 µM.
In the same order, the values of `CC(C)(C)CN1CCC2(CC1)CN(c1ccccc1NC(=O)Nc1csc(C(F)(F)F)n1)c1c(O)cc(F)c(-c3ccc(Cl)cc3)c12` [Example 158, 1-(2-(4-(4-Chlorophenyl)-5-fluoro-7-hydroxy-1′-neopentylspiro[indoline-3,4′-piperidin]-1-yl)phenyl)-3-(2-(trifluoromethyl)thiazol-4-yl)urea] are 15.4 nM and 0.3 µM.
In the same order, the values of `CC(C)(C)CN1CCC2(CC1)CN(c1ccccc1NC(=O)Nc1csc(C(F)(F)F)n1)c1c(O)cc(F)c(-c3ccc(C(F)(F)F)nc3)c12` [Example 159, 1-(2-(5-Fluoro-7-hydroxy-1′-neopentyl-4-(6-(trifluoromethyl)pyridin-3-yl)spiro[indoline-3,4′-piperidin]-1-yl)phenyl)-3-(2-(trifluoromethyl)thiazol-4-yl)urea] are 281 nM and 0.1 µM.
Consider `CC(C)(C)CN1CCC2(CC1)CN(c1ccccc1NC(=O)Nc1ccc(OC(F)(F)F)cc1)c1c(O)cc(F)c(-c3ccc(C(F)(F)F)nc3)c12` [Example 160, 1-(2-(5-Fluoro-7-hydroxy-1′-neopentyl-4-(6-(trifluoromethyl)pyridin-3-yl)spiro[indoline-3,4′-piperidin]-1-yl)phenyl)-3-(4-(trifluoromethoxy)phenyl)urea], for which the Ki in assay [1] worked out at 199 nM. Also, the IC50 in assay [2] (setting [3]) turned out to be 0.1 µM.
Taken in the same sequence, the figures for `CC(C)(C)CN1CCC2(CC1)CN(c1ccccc1NC(=O)Nc1nc3ccc(F)cc3s1)c1c(O)cc(F)c(-c3ccc(C(F)(F)F)nc3)c12` [Example 161, 1-(2-(5-Fluoro-7-hydroxy-1′-neopentyl-4-(6-(trifluoromethyl)pyridin-3-yl)spiro[indoline-3,4′-piperidin]-1-yl)phenyl)-3-(6-fluorobenzo[d]thiazol-2-yl)urea] were 41.1 nM and 0.2 µM.
`CC(C)(C)CN1CCC2(CC1)CN(c1ccccc1NC(=O)Nc1nc3ccc(Cl)cc3s1)c1c(O)cc(F)c(-c3ccc(C(F)(F)F)nc3)c12` [Example 162, 1-(6-Chlorobenzo[d]thiazol-2-yl)-3-(2-(5-fluoro-7-hydroxy-1′-neopentyl-4-(6-(trifluoromethyl)pyridin-3-yl)spiro[indoline-3,4′-piperidin]-1-yl)phenyl)urea]: the inhibition constant Ki in assay [1] was found to be 65.5 nM. Also, the IC50 in assay [2] (setting [3]) is 0.5 µM.
In the same order, the values of `CC(C)(C)CN1CCC2(CC1)CN(c1ccccc1NC(=O)Nc1nc3ccc(Cl)nc3s1)c1c(O)cc(F)c(-c3ccc(Cl)cc3)c12` [Example 164, 1-(2-(4-(4-Chlorophenyl)-5-fluoro-7-hydroxy-1′-neopentylspiro[indoline-3,4′-piperidin]-1-yl)phenyl)-3-(5-chlorothiazolo[5,4-b]pyridin-2-yl)urea] are 24.9 nM and 0.6 µM.
Regarding `CC(C)(C)CN1CCC2(CC1)CN(c1ccccc1NC(=O)Nc1nc3ccc(F)cc3s1)c1c(O)cc(F)c(-c3ccc(Cl)cc3)c12` [Example 165, 1-(2-(4-(4-Chlorophenyl)-5-fluoro-7-hydroxy-1′-neopentylspiro[indoline-3,4′-piperidin]-1-yl)phenyl)-3-(6-fluorobenzo[d]thiazol-2-yl)urea], the Ki in assay [1] was 56.2 nM. Moreover, the IC50 in assay [2] (setting [3]) stood at 0.3 µM.
Take `CC(C)(C)CN1CCC2(CC1)CN(c1ccccc1NC(=O)Nc1nc3ccc(Cl)nc3s1)c1c(O)ccc(Cl)c12` [Example 166, 1-(2-(4-Chloro-7-hydroxy-1′-neopentylspiro[indoline-3,4′-piperidine]-1-yl)phenyl)-3-(5-chlorothiazolo[5,4-b]pyridin-2-yl)urea]: the Ki in assay [1] was determined as 6.8 nM. In assay [2] (read-out: PA IC50 (μM) @ 10 μM ADP, platelet aggregation induced by 10 μM ADP, human PRP), the IC50 was determined as 0.1 µM.
For `CC(C)(C)CN1CCC2(CC1)CN(c1ccccc1NC(=O)Nc1nc3ccc(Cl)nc3s1)c1c(O)ccc(F)c12` [Example 168, 1-(5-Chlorothiazolo[5,4-b]pyridin-2-yl)-3-(2-(4-fluoro-7-hydroxy-1′-neopentylspiro-[indoline-3,4′-piperidine]-1-yl)phenyl)urea], the Ki in assay [1] was determined as 8.6 nM. In addition, in assay [2] (setting [3]), the IC50 was found to be 0.3 µM.
In the same order, the values of `COc1ccc2nc(NC(=O)Nc3ccccc3N3CC4(CCN(CC(C)(C)C)CC4)c4c(Cl)ccc(O)c43)sc2n1` [Example 169, 1-(2-(4-Chloro-7-hydroxy-1′-neopentylspiro[indoline-3,4′-piperidine]-1-yl)phenyl)-3-(5-methoxythiazolo[5,4-b]pyridin-2-yl)urea] are 11.5 nM and 0.2 µM.
Taken in the same sequence, the figures for `CC(C)(C)CN1CCC2(CC1)CN(c1ccccc1NC(=O)Nc1nc3ccc(F)nc3s1)c1c(O)ccc(Cl)c12` [Example 170] were 6.5 nM and 0.5 µM.
`CC(C)(C)CN1CCC2(CC1)CN(c1ccccc1NC(=O)Nc1nc3ccc(Cl)nc3s1)c1c(O)cccc12` [Example 172, 1-(5-Chlorothiazolo[5,4-b]pyridin-2-yl)-3-(2-(7-hydroxy-1′-neopentylspiro[indoline-3,4′-piperidine]-1-yl)phenyl)urea]: the Ki in assay [1] is 5.3 nM. Moreover, the IC50 in assay [2] (setting [3]) stood at 0.6 µM.
Consider `COc1ccc2nc(NC(=O)Nc3ccccc3N3CC4(CCN(CC(C)(C)C)CC4)c4c(F)ccc(O)c43)sc2n1` [Example 173, 1-(2-(4-Fluoro-7-hydroxy-1′-neopentylspiro[indoline-3,4′-piperidine]-1-yl)phenyl)-3-(5-methoxythiazolo[5,4-b]pyridin-2-yl)urea], for which the inhibition constant (Ki) in assay [1] was 3.8 nM. Moreover, the concentration for half-maximal inhibition (IC50) in assay [2] (setting [3]) is 0.3 µM.
With `CC(C)(C)CN1CCC2(CC1)CN(c1ccccc1NC(=O)Nc1nc3ccc(F)nc3s1)c1c(O)ccc(F)c12` [Example 174, 1-(2-(4-Fluoro-7-hydroxy-1′-neopentylspiro[indoline-3,4′-piperidine]-1-yl)phenyl)-3-(5-fluorothiazolo[5,4-b]pyridin-2-yl)urea], the Ki in assay [1] turned out to be 7 nM. Further, the IC50 in assay [2] (setting [3]) was determined as 0.2 µM.
In the case of `CC(C)(C)CN1CCC2(CC1)CN(c1ccccc1NC(=O)Nc1nc3ccc(Cl)nc3s1)c1c(O)ccc(C(F)(F)F)c12` [Example 175, 1-(5-Chlorothiazolo[5,4-b]pyridin-2-yl)-3-(2-(7-hydroxy-1′-neopentyl-4-(trifluoromethyl)spiro[indoline-3,4′-piperidine]-1-yl)phenyl)urea], in assay [1], the Ki stood at 13.4 nM. In assay [2] (setting [3]), the IC50 is 0.5 µM.
Turning to `CC(C)(C)CN1CCC2(CC1)CN(c1ncccc1NC(=O)Nc1nc3ccc(Cl)nc3s1)c1c(O)ccc(C(F)(F)F)c12` [Example 176, 1-(5-Chlorothiazolo[5,4-b]pyridin-2-yl)-3-(2-(7-hydroxy-1′-neopentyl-4-(trifluoromethyl)spiro[indoline-3,4′-piperidine]-1-yl)pyridin-3-yl)urea], the Ki in assay [1] was found to be 7.2 nM. The IC50 in assay [2] (setting [3]) was 0.4 µM.
